Laboratory results from paper PMC5218480 (PLoS ONE, 2017).

Tested on: MV-4-11 cells
Test: Gene expression microarray analysis (Affymetrix PrimeView) and GSEA
Format: cell-based, human
Design: RFU PODN (11730768_x_at) / Fold change /veh PODN (11730768_x_at) / RFU LINC00158 (11744669_a_at) / Fold change /veh LINC00158 (11744669_a_at) / RFU DUSP10 (11751237_a_at) / Fold change /veh DUSP10 (11751237_a_at) / RFU ID3 (11757404_x_at) / Fold change /veh ID3 (11757404_x_at) / RFU PLEKHG5 (11737974_s_at) / Fold change /veh PLEKHG5 (11737974_s_at) / RFU LRRC4B (11730491_at) / Fold change /veh LRRC4B (11730491_at) / RFU GIMAP4 (11747438_a_at) / Fold change /veh GIMAP4 (11747438_a_at) / RFU KRT8 (11758183_x_at) / Fold change /veh KRT8 (11758183_x_at) / RFU CNN1 (11734310_a_at) / Fold change /veh CNN1 (11734310_a_at) / RFU VPS37D (11726825_at) / Fold change /veh VPS37D (11726825_at) / RFU C10orf10 (11716522_x_at) / Fold change /veh C10orf10 (11716522_x_at) / RFU KIR2DL2 /// KIR2DL4 /// KIR2DL5A /// KIR2DL5B /// KIR2DS1 /// KIR2DS2 /// KIR2DS3 /// KIR2DS4 /// KIR3DL3 /// KIR3DL3 /// KIR3DS1 (11738374_at) / Fold change /veh KIR2DL2 /// KIR2DL4 /// KIR2DL5A /// KIR2DL5B /// KIR2DS1 /// KIR2DS2 /// KIR2DS3 /// KIR2DS4 /// KIR3DL3 /// KIR3DL3 /// KIR3DS1 (11738374_at) / RFU C1QL1 (11718748_at) / Fold change /veh C1QL1 (11718748_at) / RFU TMPRSS4 (11747572_a_at) / Fold change /veh TMPRSS4 (11747572_a_at) / RFU HAMP (11756126_x_at) / Fold change /veh HAMP (11756126_x_at) / RFU RNFT2 (11725882_a_at) / Fold change /veh RNFT2 (11725882_a_at) / RFU NR4A2 (11747474_a_at) / Fold change /veh NR4A2 (11747474_a_at) / RFU ABCC12 (11746883_a_at) / Fold change /veh ABCC12 (11746883_a_at) / RFU TMEM136 (11760407_x_at) / Fold change /veh TMEM136 (11760407_x_at) / RFU CLDN22 /// WWC2 (11732394_at) / Fold change /veh CLDN22 /// WWC2 (11732394_at) / RFU HLA-DPB1 (11760878_x_at) / Fold change /veh HLA-DPB1 (11760878_x_at) / RFU SPINT1 (11716480_a_at) / Fold change /veh SPINT1 (11716480_a_at) / RFU GAP43 (11754022_s_at) / Fold change /veh GAP43 (11754022_s_at) / RFU A4GNT (11735810_at) / Fold change /veh A4GNT (11735810_at) / RFU PRB3 (11715151_x_at) / Fold change /veh PRB3 (11715151_x_at) / RFU TUBB4B (11761932_at) / Fold change /veh TUBB4B (11761932_at) / RFU CAPN14 (11732068_a_at) / Fold change /veh CAPN14 (11732068_a_at) / RFU TMCC2 (11721928_a_at) / Fold change /veh TMCC2 (11721928_a_at) / RFU IRGQ (11745062_a_at) / Fold change /veh IRGQ (11745062_a_at) / RFU FAM174B (11720279_a_at) / Fold change /veh FAM174B (11720279_a_at) / RFU TMPRSS4 (11748680_a_at) / Fold change /veh TMPRSS4 (11748680_a_at) / RFU FAM212B (11763350_a_at) / Fold change /veh FAM212B (11763350_a_at) / RFU PLEKHG5 (11743358_a_at) / Fold change /veh PLEKHG5 (11743358_a_at) / RFU ZSCAN30 (11745921_a_at) / Fold change /veh ZSCAN30 (11745921_a_at) / RFU CMKLR1 (11741424_a_at) / Fold change /veh CMKLR1 (11741424_a_at) / RFU LOC101060620 /// MAPK8IP1 (11723275_at) / Fold change /veh LOC101060620 /// MAPK8IP1 (11723275_at) / RFU SPTSSB (11747773_x_at) / Fold change /veh SPTSSB (11747773_x_at) / RFU PRSS12 (11739890_at) / Fold change /veh PRSS12 (11739890_at) / RFU BIN1 (11741810_x_at) / Fold change /veh BIN1 (11741810_x_at) / RFU WNT11 (11732464_a_at) / Fold change /veh WNT11 (11732464_a_at) / RFU C10orf10 (11716521_a_at) / Fold change /veh C10orf10 (11716521_a_at) / RFU C5orf56 (11738089_at) / Fold change /veh C5orf56 (11738089_at) / RFU CYB561 (11721691_x_at) / Fold change /veh CYB561 (11721691_x_at) / RFU ANKRD19P (11752326_a_at) / Fold change /veh ANKRD19P (11752326_a_at) / RFU OR2T12 /// OR2T33 /// OR2T8 (11738714_s_at) / Fold change /veh OR2T12 /// OR2T33 /// OR2T8 (11738714_s_at) / RFU VCAN (11748164_a_at) / Fold change /veh VCAN (11748164_a_at) / RFU JSRP1 (11732532_at) / Fold change /veh JSRP1 (11732532_at) / RFU KRTAP10-11 (11738290_x_at) / Fold change /veh KRTAP10-11 (11738290_x_at) / RFU MYO3A (11730013_a_at) / Fold change /veh MYO3A (11730013_a_at) / RFU EBF3 (11725865_a_at) / Fold change /veh EBF3 (11725865_a_at) / RFU CAMK2N1 (11719241_x_at) / Fold change /veh CAMK2N1 (11719241_x_at) / RFU C5orf56 (11738088_a_at) / Fold change /veh C5orf56 (11738088_a_at) / RFU OLFML3 (11715873_a_at) / Fold change /veh OLFML3 (11715873_a_at) / RFU LOC100653217 /// NTM (11731650_a_at) / Fold change /veh LOC100653217 /// NTM (11731650_a_at) / RFU MAPK11 (11762145_a_at) / Fold change /veh MAPK11 (11762145_a_at) / RFU FIZ1 (11724087_x_at) / Fold change /veh FIZ1 (11724087_x_at) / RFU OASL (11726364_x_at) / Fold change /veh OASL (11726364_x_at) / RFU SOX15 (11748057_x_at) / Fold change /veh SOX15 (11748057_x_at) / RFU CD79A (11719716_a_at) / Fold change /veh CD79A (11719716_a_at) / RFU HIST1H1D (11736915_at) / Fold change /veh HIST1H1D (11736915_at) / RFU CASKIN2 (11723855_a_at) / Fold change /veh CASKIN2 (11723855_a_at) / RFU LOC730098 (11760151_x_at) / Fold change /veh LOC730098 (11760151_x_at) / RFU OR4N2 (11742367_at) / Fold change /veh OR4N2 (11742367_at) / RFU PRRT2 (11749266_a_at) / Fold change /veh PRRT2 (11749266_a_at) / RFU SNX32 (11753110_a_at) / Fold change /veh SNX32 (11753110_a_at) / RFU CDHR5 (11726645_a_at) / Fold change /veh CDHR5 (11726645_a_at) / RFU RCAN1 (11760418_a_at) / Fold change /veh RCAN1 (11760418_a_at) / RFU FAM167A (11723789_a_at) / Fold change /veh FAM167A (11723789_a_at) / RFU FAM26E (11764081_at) / Fold change /veh FAM26E (11764081_at) / RFU ISYNA1 (11749810_s_at) / Fold change /veh ISYNA1 (11749810_s_at) / RFU ACY1 (11761880_at) / Fold change /veh ACY1 (11761880_at) / RFU 11764098_at / Fold change /veh 11764098_at / RFU SAMD14 (11745864_x_at) / Fold change /veh SAMD14 (11745864_x_at) / RFU NPB (11741838_a_at) / Fold change /veh NPB (11741838_a_at) / RFU TMPRSS6 (11731388_a_at) / Fold change /veh TMPRSS6 (11731388_a_at) / RFU KRTAP10-2 (11738614_at) / Fold change /veh KRTAP10-2 (11738614_at) / RFU ARHGAP8 /// PRR5-ARHGAP8 (11727945_x_at) / Fold change /veh ARHGAP8 /// PRR5-ARHGAP8 (11727945_x_at) / RFU KRTAP5-7 /// NADSYN1 (11734609_at) / Fold change /veh KRTAP5-7 /// NADSYN1 (11734609_at) / RFU RASL12 (11751679_a_at) / Fold change /veh RASL12 (11751679_a_at) / RFU CDKN2B (11736163_a_at) / Fold change /veh CDKN2B (11736163_a_at) / RFU PRF1 (11729649_at) / Fold change /veh PRF1 (11729649_at) / RFU, ZNF638 /// ZNF638-IT1 / Fold change vs veh, ZNF638 /// ZNF638-IT1 / RFU, PANK3 / Fold change vs veh, PANK3 / RFU, SH3YL1 / Fold change vs veh, SH3YL1 / RFU, ZEB2 / Fold change vs veh, ZEB2 / RFU, NRIP1 / Fold change vs veh, NRIP1 / RFU, PTTG1IP / Fold change vs veh, PTTG1IP / RFU, CAPN2 / Fold change vs veh, CAPN2 / RFU, MED14 / Fold change vs veh, MED14 / RFU, SNORA58 / Fold change vs veh, SNORA58 / RFU, C1orf63 / Fold change vs veh, C1orf63 / RFU, LRRFIP1 / Fold change vs veh, LRRFIP1 / RFU, NDUFAF7 / Fold change vs veh, NDUFAF7 / RFU, SLC12A2 / Fold change vs veh, SLC12A2 / RFU, IBTK / Fold change vs veh, IBTK / RFU, ESF1 / Fold change vs veh, ESF1 / Fold change vs veh, TMEM50B / RFU, TAOK1 / Fold change vs veh, TAOK1 / RFU, ACBD3 / Fold change vs veh, ACBD3 / RFU, TMA16 / Fold change vs veh, TMA16 / RFU, RWDD3 / Fold change vs veh, RWDD3 / RFU, BCAT1 / Fold change vs veh, BCAT1 / RFU, EDEM3 / Fold change vs veh, EDEM3 / RFU, TMEM33 / Fold change vs veh, TMEM33 / RFU, WDR75 / Fold change vs veh, WDR75 / RFU, AHCTF1 / Fold change vs veh, AHCTF1 / RFU, TFRC / Fold change vs veh, TFRC / RFU, ZDHHC17 / Fold change vs veh, ZDHHC17 / RFU, NOM1 / Fold change vs veh, NOM1 / RFU, ARL8B / Fold change vs veh, ARL8B / RFU, ZBTB11 / Fold change vs veh, ZBTB11 / RFU, TAMM41 / Fold change vs veh, TAMM41 / RFU, KIAA1704 /// LOC100996395 / Fold change vs veh, KIAA1704 /// LOC100996395 / RFU, ING1 / Fold change vs veh, ING1 / RFU, TRMT61B / Fold change vs veh, TRMT61B / RFU, FUBP3 / Fold change vs veh, FUBP3 / RFU, TP53 / Fold change vs veh, TP53 / RFU, TNKS2 / Fold change vs veh, TNKS2 / RFU, ZFP14 / Fold change vs veh, ZFP14 / RFU, ACTR2 / Fold change vs veh, ACTR2 / RFU, PPP3R1 / Fold change vs veh, PPP3R1 / RFU, PIK3R1 / Fold change vs veh, PIK3R1 / RFU, HNRNPA1 / Fold change vs veh, HNRNPA1 / RFU, RNF170 / Fold change vs veh, RNF170 / RFU, ZNF28 / Fold change vs veh, ZNF28 / RFU, RNGTT / Fold change vs veh, RNGTT / RFU, OGT / Fold change vs veh, OGT / RFU, BRD1 / Fold change vs veh, BRD1 / RFU, MARS / Fold change vs veh, MARS / RFU, ZNF655 / Fold change vs veh, ZNF655 / RFU, FAHD1 / Fold change vs veh, FAHD1 / RFU, BDP1 / Fold change vs veh, BDP1 / RFU, LRRCC1 / Fold change vs veh, LRRCC1 / RFU, ARID1A / Fold change vs veh, ARID1A / RFU, ZNF146 / Fold change vs veh, ZNF146 / RFU, ZNF330 / Fold change vs veh, ZNF330 / RFU, GPN3 / Fold change vs veh, GPN3 / RFU, C9orf123 / Fold change vs veh, C9orf123 / RFU, N4BP2L2 / Fold change vs veh, N4BP2L2 / RFU, ARFIP1 / Fold change vs veh, ARFIP1 / RFU, FAM179B / Fold change vs veh, FAM179B / RFU, BCL10 / Fold change vs veh, BCL10 / RFU, UHRF1BP1L / Fold change vs veh, UHRF1BP1L / RFU, BET1 / Fold change vs veh, BET1 / RFU, CNOT2 / Fold change vs veh, CNOT2 / RFU, ZNF268 / Fold change vs veh, ZNF268 / Fold change vs veh, ZNF507 / RFU, DGCR2 / Fold change vs veh, DGCR2 / RFU, WDSUB1 / Fold change vs veh, WDSUB1 / Fold change vs veh, HSP90B1 /// MIR3652 / RFU, ADSS / Fold change vs veh, ADSS / RFU, GK / Fold change vs veh, GK / RFU, ZNF148 / Fold change vs veh, ZNF148 / RFU, TAF9 / Fold change vs veh, TAF9 / RFU, SLC1A5 / Fold change vs veh, SLC1A5 / RFU, SLMO2 / Fold change vs veh, SLMO2 / RFU, ABCC4 / Fold change vs veh, ABCC4 / RFU, LOC101060439 /// RAP1B / Fold change vs veh, LOC101060439 /// RAP1B / RFU, RFX7 / Fold change vs veh, RFX7 / RFU, GTPBP10 / Fold change vs veh, GTPBP10 / RFU, CNEP1R1 / Fold change vs veh, CNEP1R1 / RFU, BIVM-ERCC5 /// ERCC5 / Fold change vs veh, BIVM-ERCC5 /// ERCC5 / RFU, ILF3 / Fold change vs veh, ILF3 / RFU 11762660_at / Fold change /veh 11762660_at / RFU VCAN (11757783_s_at) / Fold change /veh VCAN (11757783_s_at) / RFU DDX43 (11728927_at) / Fold change /veh DDX43 (11728927_at) / RFU KRT8 (11758188_x_at) / Fold change /veh KRT8 (11758188_x_at) / RFU NKD1 (11759106_at) / Fold change /veh NKD1 (11759106_at) / RFU SRD5A1 (11742802_a_at) / Fold change /veh SRD5A1 (11742802_a_at) / RFU TPSAB1 /// TPSB2 (11721975_s_at) / Fold change /veh TPSAB1 /// TPSB2 (11721975_s_at) / RFU GSTM3 (11746129_a_at) / Fold change /veh GSTM3 (11746129_a_at) / RFU IL23R (11737362_x_at) / Fold change /veh IL23R (11737362_x_at) / RFU TMEM51 (11727254_a_at) / Fold change /veh TMEM51 (11727254_a_at) / RFU PIWIL2 (11732686_x_at) / Fold change /veh PIWIL2 (11732686_x_at) / RFU ORM1 (11744905_x_at) / Fold change /veh ORM1 (11744905_x_at) / RFU CCDC152 (11743942_at) / Fold change /veh CCDC152 (11743942_at) / RFU ECM1 (11717891_a_at) / Fold change /veh ECM1 (11717891_a_at) / RFU IL23R (11748794_a_at) / Fold change /veh IL23R (11748794_a_at) / RFU TNFAIP8L3 (11732012_x_at) / Fold change /veh TNFAIP8L3 (11732012_x_at) / RFU MBOAT4 (11741988_at) / Fold change /veh MBOAT4 (11741988_at) / RFU 11764193_at / Fold change /veh 11764193_at / RFU TMEM53 (11763286_at) / Fold change /veh TMEM53 (11763286_at) / RFU MAGEB2 (11727129_at) / Fold change /veh MAGEB2 (11727129_at) / RFU TMEM200A (11744735_a_at) / Fold change /veh TMEM200A (11744735_a_at) / RFU CCDC152 (11751479_a_at) / Fold change /veh CCDC152 (11751479_a_at) / RFU FAM211A (11726209_a_at) / Fold change /veh FAM211A (11726209_a_at) / RFU RGS16 (11746705_a_at) / Fold change /veh RGS16 (11746705_a_at) / RFU VCAN (11755009_s_at) / Fold change /veh VCAN (11755009_s_at) / RFU RHOB (11743442_s_at) / Fold change /veh RHOB (11743442_s_at) / RFU RGS16 (11720943_a_at) / Fold change /veh RGS16 (11720943_a_at) / RFU RGS16 (11720944_at) / Fold change /veh RGS16 (11720944_at) / RFU, VPS4B / Fold change vs veh, VPS4B / RFU, CREB1 / Fold change vs veh, CREB1 / RFU, DNAJC13 / Fold change vs veh, DNAJC13 / RFU, GNAQ / Fold change vs veh, GNAQ / RFU, CDK5R1 / Fold change vs veh, CDK5R1 / RFU, ZRANB3 / Fold change vs veh, ZRANB3 / RFU, CUL4A / Fold change vs veh, CUL4A / RFU, CCNY / Fold change vs veh, CCNY / RFU, UFL1 / Fold change vs veh, UFL1 / RFU, COG3 / Fold change vs veh, COG3 / RFU, DIAPH2 / Fold change vs veh, DIAPH2 / RFU, SKA2 / Fold change vs veh, SKA2 / RFU, AFF3 / Fold change vs veh, AFF3 / RFU, LMF1 / Fold change vs veh, LMF1 / RFU, IPO11 / Fold change vs veh, IPO11 / RFU, DFFB / Fold change vs veh, DFFB / RFU, FOXP1 / Fold change vs veh, FOXP1 / RFU, CARD8 / Fold change vs veh, CARD8 / RFU, STRN3 / Fold change vs veh, STRN3 / RFU, ADK / Fold change vs veh, ADK / RFU, RASSF2 / Fold change vs veh, RASSF2 / RFU, WIPF1 / Fold change vs veh, WIPF1 / RFU, LARP1B / Fold change vs veh, LARP1B / RFU, RASA1 / Fold change vs veh, RASA1 / RFU, RB1 / Fold change vs veh, RB1 / RFU, PPFIA1 / Fold change vs veh, PPFIA1 / RFU, MAT2A / Fold change vs veh, MAT2A / RFU, CCT5 / Fold change vs veh, CCT5 / RFU, WDR92 / Fold change vs veh, WDR92 / RFU, CUX1 / Fold change vs veh, CUX1 / RFU, TTC7A / Fold change vs veh, TTC7A / RFU, TMEM135 / Fold change vs veh, TMEM135 / RFU, DEPTOR / Fold change vs veh, DEPTOR / RFU, CPM / Fold change vs veh, CPM / RFU, DNAJB6 / Fold change vs veh, DNAJB6 / RFU, CACNA2D3 / Fold change vs veh, CACNA2D3 / RFU, DTX4 / Fold change vs veh, DTX4 / RFU, TFCP2 / Fold change vs veh, TFCP2 / RFU, GMCL1 /// GMCL1P1 / Fold change vs veh, GMCL1 /// GMCL1P1 / RFU, AEBP2 / Fold change vs veh, AEBP2 / RFU, SNHG1 /// SNORD22 /// SNORD25 /// SNORD26 /// SNORD27 /// SNORD28 /// SNORD29 /// SNORD31 / Fold change vs veh, SNHG1 /// SNORD22 /// SNORD25 /// SNORD26 /// SNORD27 /// SNORD28 /// SNORD29 /// SNORD31 / Fold change (Aza/veh), C12orf56 (ProbeSet 11735607_a_at) / Fold change (ACY-1035/veh), C12orf56 (ProbeSet 11735607_a_at) / Fold change (Aza/veh), FGFR1OP (ProbeSet 11751329_s_at) / Fold change (ACY-1035/veh), FGFR1OP (ProbeSet 11751329_s_at) / Fold change (Aza/veh), VPS36 (ProbeSet 11739960_a_at) / Fold change (ACY-1035/veh), VPS36 (ProbeSet 11739960_a_at) / RFU SYPL1 (11715823_x_at) / Fold change /veh SYPL1 (11715823_x_at) / RFU IGFBP7 (11715501_s_at) / Fold change /veh IGFBP7 (11715501_s_at) / RFU REEP3 (11722064_at) / Fold change /veh REEP3 (11722064_at) / RFU IGLL1 (11728026_x_at) / Fold change /veh IGLL1 (11728026_x_at): dose or concentration left out as unconfirmed
Settings: ProbeSet 11727827_x_at; LIST B

Nc1ccc(-c2cccs2)cc1NC(=O)c1ccc2c(c1)cc(C1CC1)n2CCN1CCOCC1 [ACY-1035]
RFU, NDUFAF7: 59.45 RFU
